Measured values: US20020086835A1, “Use of adenosine deaminase inhibitors to treat systemic inflammatory response syndrome” (priority 2000, published 2002)

Columns and labels:
[1] = human blood; cited from earlier work
adenosine deaminase [2] = molecular target: T1, adenosine deaminase (Homo sapiens, UniProt P00813); settings: potency of inhibition of the enzyme
T1 sequence (P00813 1-363): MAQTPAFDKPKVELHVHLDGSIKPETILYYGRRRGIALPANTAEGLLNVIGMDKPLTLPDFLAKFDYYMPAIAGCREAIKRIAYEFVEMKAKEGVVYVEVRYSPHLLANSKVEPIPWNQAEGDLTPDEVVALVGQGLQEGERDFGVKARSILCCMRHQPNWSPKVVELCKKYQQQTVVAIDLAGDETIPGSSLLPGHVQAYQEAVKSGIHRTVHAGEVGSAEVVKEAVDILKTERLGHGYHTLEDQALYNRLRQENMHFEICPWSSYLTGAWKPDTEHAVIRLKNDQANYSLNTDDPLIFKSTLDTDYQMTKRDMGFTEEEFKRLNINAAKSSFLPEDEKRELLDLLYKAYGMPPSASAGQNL

TNF-α = test: Serum TNF-α by ELISA in rats with chronic peritoneal sepsis (200 mg/kg cecal slurry ip); type: in vivo, rat; settings: septic rats, versus saline-treated septic group
Description: Studies were conducted to determine if manipulation of adenosine-mediated events would result in alterations in the TNF-α response in this model. At the time of sepsis induction, rats were treated in one of four ways. One group received only 0.9% normal saline as a vehicle control (No Rx; n=6). […] The third group received the adenosine deaminase inhibitor, erythro-9-(2-hydroxy-3-nonyl)adenine (EHNA; 1 μmole/kg+1 μmole/kg/hr; iv; n=3). A fourth group received the adenosine receptor antagonist 8-sulfophenyltheophylline (SPT; 400 μg/kg/8 hours; n=5).
Sepsis was induced under pentobarbital anesthesia (50 mg/kg) in each rat by intraperitoneal (ip) injection of 200 mg/kg rat cecal contents mixed as a slurry in 5% dextrose in water (D5W). […] Non-septic controls received an equivalent volume ip injection of D5W. Polyethylene catheters (Intramedic PE-50, Baxter) were inserted into the right internal jugular vein and right carotid artery. The jugular catheter was used for venous access (drug infusions; volume replacement, etc). The carotid catheter was used to obtain arterial blood samples, and to monitor arterial blood pressure and heart rate. The catheters were secured in their respective vessels, tunneled subcutaneously to exit in the interscapular region, and filled with heparinized saline (50 units/ml 0.9% normal saline). Incisions were closed in layers using 3-0 silk. Rats were allowed to recover from anesthetic and provided food and water ad libitum,
Serum and tissue tumor necrosis factor-α (TNF-α) concentrations were determined by enzyme-linked immunosorbant assay. Samples of serum, liver, and spleen were collected, rapidly weighed, and frozen in liquid nitrogen. On the day of assay, tissues are added to labeled tubes containing lysis buffer (volume=10 ml/gram wt. with 1:10 dilution) and kept on ice. The lysis buffer is 20 mM Tris (pH 7.4) containing […] phenylmethylsulfonylflouride (PMSF), […] leupeptin, 0.7 g/ml pepstatin, and 2.0 g/ml aprotinin to inhibit proteases. Samples were immediately homogenized using five 3 see bursts, washing grinding pistol (3×) between samples with phosphate buffered saline. Samples are then centrifuged for 20 min at 2200 RPM, 4° C. The supernatant was removed and used for TNF-α measurements. Briefly, each microplate well contained 50 μl of assay diluent. To each well, 50 μl of standard, control, or serum/homogenate supernatant sample were added and mixed on an orbital plate shaker. Plates were incubated at room temperature for 2 hours. Each well was then aspirated and washed with wash buffer 4 times. After final aspiration of wash buffer, 100 μl of rat TNF-α conjugate was added to each well. Wells were then covered and incubated for 2 hours at room temperature. At the end of the incubation, the aspiration/wash procedure was repeated 4 times, after which 100 μl of stabilized chromogen solution was added to each well. Next, plates were incubated for 45 minutes at room temperature in a dark area. After this final incubation period, 100 μl stopping solution was added to each well. Optical density of each well at […] was determined within 30 minutes using a Biotek Instruments EL312e microtiter plate reader. Concentrations of TNF-α were calculated from the standard curves.
At the time of sepsis induction, rats were treated in one of three ways. One group received only 0.9% normal saline as a vehicle control (VEH, n=6, where n is the number of rats). […] A third group received the adenosine receptor antagonist, 8-sulfophenyltheo-phylline (SPT; 400 μg/kg/8 h; n=5). Serum TNF-α (pg/ml) was determined at 4 and 24 hours after sepsis induction by ELISA.
Male SD rats (350-400 g) were made septic by IP introduction of a 200 mg/kg cecal slurry. […] TNF-α (pg/ml) was determined at 4 and 24 hours after sepsis induction by ELISA.

adenosine deaminase [3] = molecular target: T1, adenosine deaminase; settings: read-out: Inhibitory constant for adenosine deaminase; cited from earlier work
adenosine deaminase [4] = settings: in perfusion medium, in the presence of 5′-amino-5′-deoxyadenosine; cited from earlier work

| Compound | Half life [1] | Activity relative to pentostatin (times less active) (adenosine deaminase [2]) | Effect on serum TNF-α response to sepsis at 4 hours (TNF-α; 4 hours) | Effect on serum TNF-α response to sepsis at 24 hours (TNF-α; 24 hours) | Ki (adenosine deaminase [3]) | Increase of adenosine release (adenosine deaminase [4]) |
| --- | --- | --- | --- | --- | --- | --- |
| Nc1ncnc2c1ncn2[C@@H]1O[C@H](CO)[C@@H](O)[C@H]1O [Adenosine] | < 1 s |  |  |  |  |  |
| CCCCCCC(C(C)O)n1cnc2c(N)ncnc21 (stereo not drawn) [EHNA, erythro-9-(2-hydroxy-3-nonyl)adenine] |  | one thousand | attenuation of this response | attenuation of this response | 1 nM | 15 fold |
